ChEMBL document CHEMBL1150662, “A new digalactosyl diacylglycerol from a cultured marine dinoflagellate Heterocapsa circularisquama” (J Nat Prod, 2002)

Test: Cytotoxicity against oysters heart cells at 0.5 ug/ml
Format: cell-based
Details: ostreidae

Compound | Activity
CC/C=C\C/C=C\C/C=C\C/C=C\C/C=C\CC(=O)OC[C@H](CO[C@@H]1O[C@H](CO)[C@H](O)[C@H](O)[C@H]1O)OC(=O)C/C=C\C/C=C\C/C=C\C/C=C\C/C=C\CC | Toxic
CC/C=C\C/C=C\C/C=C\C/C=C\C/C=C\CC(=O)OC[C@H](CO[C@@H]1O[C@H](CO[C@H]2O[C@H](CO)[C@H](O)[C@H](O)[C@H]2O)[C@H](O)[C@H](O)[C@H]1O)OC(=O)CCCC/C=C\C/C=C\C/C=C\C/C=C\CC | Toxic
CC/C=C\C/C=C\C/C=C\C/C=C\C/C=C\CC(=O)OC[C@H](CO[C@@H]1O[C@H](CO)[C@H](O)[C@H](O)C1O)OC(=O)CCCC/C=C\C/C=C\C/C=C\C/C=C\CC (single isomer, unassigned) | Toxic
